Laboratory results from patent US20220073536A1 (Rigel Pharmaceuticals, Inc., priority 2003, published 2022).
Counter-ions that a name gives are not always drawn.

test system: cultured human mast cells (CHMC); assay: CHMC low cell density IgE activation: tryptase assay; format: cell-based; settings: Homo sapiens, Mast cell, low cell density CHMC, IgE activation, tryptase, 3 pt; read-out: LD Tryptase, CHMC, IgE, 3 pt
Protocol: Inhibition of degranulation was measured at both low and high cell density by quantifying the release of the granule specific factors tryptase, histamine and hexosaminidase. Inhibition of release and/or synthesis of lipid mediators was assessed by measuring the release of leukotriene LTC4 and inhibition of release and/or synthesis of cytokines was monitored by quantifying TNF-α, IL-6 and IL-13. Tryptase and hexosaminidase were quantified using fluorogenic substrates as described in their respective examples. […] The protocols of the various assays are provided below.
Pellet CHMC cells (980 rpm, 10 min) and resuspend in pre-warmed MT. Add 65 ul of cells to each 96-well plate. Depending on the degranulation activity for each particular CHMC donor, load 1000-1500 cells/well. Mix four times followed by a 1 hr incubation at 37° C. […] Stimulate cells by adding 25 ul of 6× anti-IgE solution to the appropriate plates. Add 25 ul MT to un-stimulated control wells. Mix twice following addition of the anti-IgE. Incubate at 37° C. for 30 minutes. […] Spin plates at 1000 rpm for 10 min to pellet cells. Transfer 25 ul of supernatant to a 96-well black bottom plate and add 100 ul of freshly diluted tryptase substrate solution to each well. Incubate plates at room temperature for 30 min.

Compared with `CC1(C)Oc2ccc(Nc3nc(Nc4ccc5ccn(C(N)=O)c5c4)ncc3F)cc2NC1=O` [Compound 348], `COC(=O)c1cc2cc(Nc3ncc(F)c(Nc4cc(OC)cc(OC)c4)n3)ccc2o1` [Compound 381] is lower in IC50: over 10 µM for the first, under 10 µM for the second.

`COc1cc(Nc2nc(Nc3cc(C)c(Cl)c(C)c3)ncc2F)cc(OC)c1` [Compound 349] and `COc1cc(Nc2nc(Nc3cc(Cl)cc(Cl)c3)ncc2F)cc(OC)c1` [Compound 352] cannot be ordered by IC50: under 10 µM for the first, under 10 µM for the second.

`COc1cc(Nc2nc(Nc3cc(C)cc(C(F)(F)F)c3)ncc2F)cc(OC)c1` [Compound 353] and `COc1cc(Nc2nc(Nc3cc(OC)cc(C(F)(F)F)c3)ncc2F)cc(OC)c1` [Compound 355] cannot be ordered by IC50: under 10 µM for the first, under 10 µM for the second.

Compared with `COc1cc(Nc2ncc(F)c(Nc3ccc4c(c3)OCO4)n2)cc(C(F)(F)F)c1` [Compound 373, 5-Fluoro-N4-(3,4-methylenedioxyphenyl)-N2-(3-methoxy-5-trifluoromethylphenyl)-2,4-pyrimidinediamine], `Cc1cc(Nc2ncc(F)c(Nc3ccc4c(c3)OCO4)n2)cc(C(F)(F)F)c1` [Compound 374] is higher in IC50: under 10 µM for the first, over 10 µM for the second. The first is the more potent here.

`Fc1cnc(Nc2cc(Cl)cc(Cl)c2)nc1Nc1ccc2c(c1)OCO2` [Compound 375] and `COc1cc(Nc2ncc(F)c(Nc3ccc4c(c3)OCCO4)n2)c(OC)cc1Cl` [Compound 379] cannot be ordered by IC50: under 10 µM for the first, under 10 µM for the second.

`COc1ccc(Nc2nc(Nc3cc(OC)c(Cl)cc3OC)ncc2F)cc1Cl` [Compound 377] and `COc1cc(Nc2nc(Nc3cc(OC)c(Cl)cc3OC)ncc2F)cc(OC)c1` [Compound 380] cannot be ordered by IC50: under 10 µM for the first, under 10 µM for the second.

With `COc1cc(Nc2nc(Nc3cccc4cc(C(=O)O)[nH]c34)ncc2F)cc(OC)c1` [Compound 383] the IC50 was under 10 µM.

same assay, conditions: Homo sapiens, Mast cell, low cell density CHMC, IgE activation, tryptase, 8 pt; read-out: LD Tryptase, CHMC, IgE, 8 pt

`COc1cc(Nc2nc(Nc3ccc4c(c3)OCCO4)ncc2F)cc(OC)c1` [Compound 351, N4-(3,5-Dimethoxyphenyl)-N2-(3,4-ethylenedioxyphenyl)-5-fluoro-2,4-pyrimidinediamine] and `COc1cc(Nc2ncc(F)c(Nc3ccc4c(c3)OCO4)n2)cc(OC)c1` [Compound 372, N2-(3,5-Dimethoxyphenyl)-5-fluoro-N4-(3,4-methylenedioxyphenyl)-2,4-pyrimidinediamine] cannot be ordered by IC50: under 10 µM for the first, under 10 µM for the second.

`Fc1cnc(Nc2cc(Cl)cc(Cl)c2)nc1Nc1ccc2c(c1)OCCO2` [Compound 354] and `COc1cc(Cl)cc(Nc2ncc(F)c(Nc3ccc4c(c3)OCCO4)n2)c1` [Compound 370] cannot be ordered by IC50: under 10 µM for the first, under 10 µM for the second.

`COc1cc(Nc2ncc(F)c(Nc3ccc4c(c3)OCCO4)n2)cc(C(F)(F)F)c1` [Compound 356, N4-(3,4-Ethylenedioxyphenyl)-5-fluoro-N2-(3-methoxy-5-trifluoromethylphenyl)-2,4-pyrimidinediamine] and `Cc1cc(C)cc(Nc2ncc(F)c(Nc3ccc4c(c3)OCO4)n2)c1` [Compound 376] cannot be ordered by IC50: under 10 µM for the first, under 10 µM for the second.

`COc1cc(Cl)cc(Nc2ncc(F)c(Nc3ccc4c(c3)NC(=O)C(C)(C)O4)n2)c1` [Compound 369, N2-(3-Chloro-5-methoxyphenyl)-N4-(2,2-dimethyl-3-oxo-4H-benz[1,4]oxazin-6-yl)-5-fluoro-2,4-pyrimidinediamine] and `COc1ccc(Nc2ncc(F)c(Nc3ccc4c(c3)NC(=O)C(C)(C)O4)n2)cc1Cl` [Compound 378, N2-(3-Chloro-4-methoxyphenyl)-N4-(2,2-dimethyl-3-oxo-4H-benz[1,4]oxazin-6-yl)-5-fluoro-2,4-pyrimidinediamine p-Toluene Sulfonic Acid Salt] cannot be ordered by IC50: under 10 µM for the first, under 10 µM for the second.

`CNC(=O)c1cc2cccc(Nc3ncc(F)c(Nc4ccc5c(c4)OCO5)n3)c2[nH]1` [Compound 371, 5-Fluoro-N4-(3,4-methylenedioxyphenyl)-N2-[2-(N-methylamino)carbonylindol-7-yl]-2,4-pyrimidinediamine] and `COC(=O)c1cc2cc(Nc3ncc(F)c(Nc4cc(OC)cc(OC)c4)n3)ccc2o1` [Compound 381] cannot be ordered by IC50: under 10 µM for the first, under 10 µM for the second.

same assay, conditions: Homo sapiens, Mast cell, low cell density, IgE activation, 3 pt; read-out: LD Tryptase, CHMC, IgE, 3 pt

Going from `CNC(=O)c1ccc(Nc2nc(Nc3ccc(Cl)c(C(=O)NC)c3)ncc2F)cc1Cl` [Compound 484] to `CNC(=O)c1ccc(Nc2nc(Nc3ccc4cc[nH]c4c3)ncc2F)cc1Cl` [Compound 485, N4-[3-Chloro-4-(N-methylamino)carbonylphenyl]-5-fluoro-N2-(indol-6-yl)-2,4-pyrimidinediamine], the IC50 falls from over 10 µM to under 10 µM. The second is the more potent here.

`Oc1cccc(Nc2nc(Nc3cccc(-c4ncco4)c3)ncc2F)c1` [Compound 511, 5-Fluoro-N4-(3-hydroxyphenyl)-N2-[3-(oxazol-2-yl)phenyl]-2,4-pyrimidinediamine] and `Oc1cccc(Nc2nc(Nc3cccc(-c4ncon4)c3)ncc2F)c1` [Compound 522] cannot be ordered by IC50: under 10 µM for the first, under 10 µM for the second.

`COc1cc(N(C)c2nc(Cl)ncc2F)cc(OC)c1OC` [Compound 523] and `Cc1noc(C)c1Nc1ncc(F)c(Nc2c(C)noc2C)n1` [Compound 528] cannot be ordered by IC50: over 10 µM for the first, over 10 µM for the second.

`Cc1cc(Nc2nc(Nc3cccc(-c4ncco4)c3)ncc2F)no1` [Compound 524, 5-Fluoro-N4-(5-methylisoxazol-3-yl)-N2-[3-(oxazol-2-yl)phenyl]-2,4-pyrimidinediamine] and `Cc1onc(-c2ccccc2)c1Nc1nc(Nc2cccc(-c3ncco3)c2)ncc1F` [Compound 525] cannot be ordered by IC50: under 10 µM for the first, under 10 µM for the second.

`Cn1nc(-c2ccccc2)cc1Nc1nc(Nc2cccc(-c3ncco3)c2)ncc1F` [Compound 526] and `COC(=O)c1cc(Nc2ncc(F)c(Nc3cc(C(=O)OC)cc(-c4ncco4)c3)n2)cc(-c2ncco2)c1` [Compound 527] cannot be ordered by IC50: under 10 µM for the first, under 10 µM for the second.

`Fc1cnc(Nc2cc(-c3ncco3)cc(C(F)(F)F)c2)nc1Nc1cc(-c2ncco2)cc(C(F)(F)F)c1` [Compound 529] gave an IC50 of under 10 µM.

same assay, conditions: Homo sapiens, Mast cell, low cell density, IgE activation, 8 pt; read-out: LD Tryptase, CHMC, IgE, 8 pt

Molecule `CNC(=O)c1ccc(Nc2nc(Nc3ccc4cc[nH]c4c3)ncc2F)cc1Cl` [Compound 485, N4-[3-Chloro-4-(N-methylamino)carbonylphenyl]-5-fluoro-N2-(indol-6-yl)-2,4-pyrimidinediamine] has an IC50 of under 10 µM.

same assay, conditions: low cell density CHMC, IgE activation, tryptase, 3 pt; read-out: LD Tryptase, CHMC, IgE, 3 pt

`CNC(=O)n1ccc2ccc(Nc3ncc(F)c(Nc4ccc5c(c4)NC(=O)C(C)(C)O5)n3)cc21` [Compound 347, N4-(2,2-Dimethyl-3-oxo-4H-benz[1,4]oxazin-6-yl)-N2-[1-(N-methylaminocarbony)lindol-6-yl)-5-fluoro-2,4-pyrimidinediamine] and `Cc1cc(C)cc(Nc2ncc(F)c(Nc3ccc4c(c3)OC(F)(F)C(F)(F)O4)n2)c1` [Compound 362, N2-(3,5-Dimethyphenyl)-5-fluoro-N4-[3,4-(tetrafluoroethylenedioxy)phenyl]-2,4-pyrimidinediamine] cannot be ordered by IC50: under 10 µM for the first, under 10 µM for the second.

`COc1cc(Nc2ncc(F)c(Nc3ccc4c(c3)OC(F)(F)C(F)(F)O4)n2)cc(OC)c1` [Compound 357] and `COc1cc(Nc2ncc(F)c(Nc3ccc4c(c3)OC(F)(F)C(F)(F)O4)n2)cc(C(F)(F)F)c1` [Compound 361] cannot be ordered by IC50: under 10 µM for the first, under 10 µM for the second.

`Cc1cc(Nc2ncc(F)c(Nc3ccc4c(c3)OC(F)(F)C(F)(F)O4)n2)cc(C)c1Cl` [Compound 358] and `Fc1cnc(Nc2cc(Cl)cc(Cl)c2)nc1Nc1ccc2c(c1)OC(F)(F)C(F)(F)O2` [Compound 360] cannot be ordered by IC50: over 10 µM for the first, over 10 µM for the second.

`Cc1cc(Nc2ncc(F)c(Nc3ccc4c(c3)OC(F)(F)C(F)(F)O4)n2)cc(C(F)(F)F)c1` [Compound 366, 5-Fluoro-N2-(3-methyl-5-trifluoromethyl)-N4-[3,4-(tetrafluoroethylenedioxy)phenyl]-2,4-pyrimidinediamine] and `Fc1cnc(Nc2ccc3c(c2)OCCO3)nc1Nc1ccc2c(c1)OC(F)(F)C(F)(F)O2` [Compound 367] cannot be ordered by IC50: under 10 µM for the first, under 10 µM for the second.

same assay, conditions: low cell density CHMC, IgE activation, tryptase, 8 pt; read-out: LD Tryptase, CHMC, IgE, 8 pt

First: COc1cc(Nc2ncc(F)c(Nc3ccc4c(c3)OC(F)(F)C(F)(F)O4)n2)cc(OC)c1 [Compound 357]
Second: Cc1cc(C)cc(Nc2ncc(F)c(Nc3ccc4c(c3)OC(F)(F)C(F)(F)O4)n2)c1 [Compound 362, N2-(3,5-Dimethyphenyl)-5-fluoro-N4-[3,4-(tetrafluoroethylenedioxy)phenyl]-2,4-pyrimidinediamine]
The IC50 of the first is lower: under 10 µM for the first, over 10 µM for the second. The first is the more potent here.

`OCc1cc(CO)cc(Nc2ncc(F)c(Nc3ccc4c(c3)OC(F)(F)C(F)(F)O4)n2)c1` [Compound 359] and `Fc1cnc(Nc2ccc3c(c2)OCCO3)nc1Nc1ccc2c(c1)OC(F)(F)C(F)(F)O2` [Compound 367] cannot be ordered by IC50: under 10 µM for the first, under 10 µM for the second.

`COC(=O)C(C)(C)Oc1ccc(Nc2nc(Nc3cc(C)cc(C)c3)ncc2F)cc1Cl` [Compound 402, N4-[3-Chloro-4-(methoxycarbonyl-1,1-dimethylmethyleneoxy)phenyl]-N2-(3,5-dimethylphenyl)-5-fluoro-2,4-pyrimidinediamine] and `COC(=O)C(C)(C)Oc1ccc(Nc2nc(Nc3cc(C)cc(C)c3)ncc2F)cc1` [Compound 403, N2-(3,5-Dimethylphenyl)-N4-[4-(methoxycarbonyl-1,1-dimethylmethyleneoxy)phenyl]-5-fluoro-2,4-pyrimidinediamine] cannot be ordered by IC50: under 10 µM for the first, under 10 µM for the second.

`CCOC(=O)C(C)(C)Oc1ccc(Nc2nc(Cl)ncc2F)cc1Cl` [Compound 407, 2-Chloro-N4-[3-chloro-4-(ethoxycarbonyl-1,1-dimethylmethyleneoxy)phenyl]-5-fluoro-4-pyrimidineamine] and `CCOC(=O)C(C)(C)Oc1ccc(Nc2nc(Nc3cc(OC)cc(OC)c3)ncc2F)cc1Cl` [Compound 408, N4-[3-Chloro-4-(ethoxycarbonyl-1,1-dimethylmethyleneoxy)phenyl]-N2-(3,5-dimethoxyphenyl)-5-fluoro-2,4-pyrimidinediamine] cannot be ordered by IC50: under 10 µM for the first, under 10 µM for the second.

same assay, conditions: low cell density, IgE activation, 8 pt; read-out: LD Tryptase, CHMC, IgE, 8 pt

In the case of `CNC(=O)COc1cccc(Nc2ncc(F)c(Nc3ccc(C(=O)NC)c(Cl)c3)n2)c1` [Compound 483, N4-[3-Chloro-4-(N-methylamino)carbonylphenyl]-5-fluoro-N2-[3-(N-methylamino)carbonylmethyleneoxyphenyl]-2,4-pyrimidinediamine], the IC50 is reported as under 10 µM.
